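Where inhibition never reached the appropriate level, the endpoint shown equals the highest concentration tested. Otherwise, values were interpolated linearly from a five-concentration, 48-hour dose response in 96-well plates. GI50 marks 50% less growth.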 Activity calls are given as the source filed them. No stated cut-off is given here; in the data, active = GI50 up to about 1.1 µM and inactive = higher.
Tests used:
Test in all cases: NCI anticancer screen, dose series, 48 h
[1] = system: CCRF-CEM
[2] = system: U-251
[3] = system: SK-MEL-5
[4] = system: CAKI-1
[5] = system: LOX IMVI
[6] = system: UACC-257
[7] = system: 786-0
[8] = system: M14
[9] = system: SNB-19
[10] = system: UACC-62
[11] = system: SN12C
[12] = system: EKVX
[13] = system: TK-10
[14] = system: SW-620
[15] = system: HOP-92
[16] = system: HCC 2998
[17] = system: SK-OV-3
[18] = system: SK-MEL-2
[19] = system: HOP-62

Structure (SMILES) | GI50 [1] | GI50 [2] | GI50 [3] | GI50 [4] | GI50 [5] | GI50 [6] | GI50 [7] | GI50 [8] | GI50 [9] | GI50 [10] | GI50 [11] | GI50 [12] | GI50 [13] | GI50 [14] | GI50 [15] | GI50 [16] | GI50 [17] | GI50 [18] | GI50 [19]
O=C(N/C=C1\C(=O)Oc2ccccc2C1=O)Nc1ccccc1 | > 100 µM (inactive) | 40.2 µM (inactive) | 25.8 µM (inactive) | 15.1 µM (inactive) | 42.4 µM (inactive) | 91.2 µM (inactive) | 43.3 µM (inactive) | 52.8 µM (inactive) | 29 µM (inactive) | 38.5 µM (inactive) | 32.8 µM (inactive) | > 100 µM (inactive) | 34 µM (inactive) | 61.2 µM (inactive) | 25.8 µM (inactive) | 58.1 µM (inactive) | 31.6 µM (inactive) | 18.5 µM (inactive) | –
COc1ccccc1/C=C1\CCC(CCN(C)C)(C2=CCCC2)C1=O (stereo unspecified) | 16.5 µM (inactive) | 16.6 µM (inactive) | 13.8 µM (inactive) | 20.9 µM (inactive) | 17.1 µM (inactive) | 17.2 µM (inactive) | 14.4 µM (inactive) | 15.5 µM (inactive) | 16.1 µM (inactive) | 11.2 µM (inactive) | 22.1 µM (inactive) | 1.81 µM (inactive) | 18.5 µM (inactive) | 17.5 µM (inactive) | 16.9 µM (inactive) | 18 µM (inactive) | – | 19.5 µM (inactive) | 17.3 µM (inactive)
COC(=O)c1ccccc1N(C(=O)c1ccccc1)c1ccccc1C | 27.3 µM (inactive) | 48.2 µM (inactive) | 30.8 µM (inactive) | 34.4 µM (inactive) | 48.1 µM (inactive) | 39.2 µM (inactive) | 50 µM (inactive) | 24 µM (inactive) | > 100 µM (inactive) | 93.8 µM (inactive) | > 100 µM (inactive) | 53.2 µM (inactive) | 41.6 µM (inactive) | 59.8 µM (inactive) | – | 60 µM (inactive) | 24.3 µM (inactive) | 45 µM (inactive) | > 100 µM (inactive)
O=C1N[C@H]2[C@H](O)[C@H](O)[C@@H](O)[C@H](O)[C@@H]2c2cc3c(c(O)c21)OCO3 [PANCRATISTATIN] | 0.0324 µM (active) | 0.0339 µM (active) | 0.0272 µM (active) | 0.0331 µM (active) | 0.0307 µM (active) | 0.0429 µM (active) | 1.58 µM (inactive) | 0.262 µM (active) | 0.0301 µM (active) | 0.0436 µM (active) | 0.0365 µM (active) | – | 0.65 µM (active) | 0.0386 µM (active) | 0.0316 µM (active) | 0.0403 µM (active) | 0.0483 µM (active) | 0.0336 µM (active) | 0.0449 µM (active)
CC1=NN(c2ccccc2)C(=O)C1/N=N/c1ccc(Br)cc1C (stereo unspecified) | > 100 µM (inactive) | 38.3 µM (inactive) | > 100 µM (inactive) | 46.2 µM (inactive) | – | > 100 µM (inactive) | 82.2 µM (inactive) | 90.4 µM (inactive) | 85.9 µM (inactive) | > 100 µM (inactive) | > 100 µM (inactive) | > 100 µM (inactive) | 39.4 µM (inactive) | > 100 µM (inactive) | 38.6 µM (inactive) | > 100 µM (inactive) | 32.9 µM (inactive) | 56.6 µM (inactive) | 27.9 µM (inactive)
O=C(/C=C1\NC(=O)c2ccccc2N1)c1ccncc1 | > 100 µM (inactive) | > 100 µM (inactive) | > 100 µM (inactive) | > 100 µM (inactive) | – | > 100 µM (inactive) | > 100 µM (inactive) | > 100 µM (inactive) | > 100 µM (inactive) | > 100 µM (inactive) | > 100 µM (inactive) | > 100 µM (inactive) | > 100 µM (inactive) | > 100 µM (inactive) | – | > 100 µM (inactive) | > 100 µM (inactive) | > 100 µM (inactive) | > 100 µM (inactive)
CC(C)c1ccc(O)c(Cc2cc(C(C)C)cc(Cc3cc(C(C)C)ccc3O)c2O)c1 | 3.39 µM (inactive) | 1.69 µM (inactive) | 1.62 µM (inactive) | 1.53 µM (inactive) | – | 1.71 µM (inactive) | 1.7 µM (inactive) | 1.66 µM (inactive) | 1.65 µM (inactive) | 2.38 µM (inactive) | 1.77 µM (inactive) | 2.65 µM (inactive) | 1.93 µM (inactive) | 1.72 µM (inactive) | 1.79 µM (inactive) | 1.78 µM (inactive) | 1.68 µM (inactive) | 1.61 µM (inactive) | 1.69 µM (inactive)
c1ccc2c3c([nH]c2c1)C1C2CCCCN2C(c2ccncc2)N1CC3 (stereo unspecified) | 33 µM (inactive) | 39.9 µM (inactive) | 43 µM (inactive) | 34.4 µM (inactive) | 37.2 µM (inactive) | 51.2 µM (inactive) | 63.4 µM (inactive) | 34.8 µM (inactive) | 25.4 µM (inactive) | 36.5 µM (inactive) | 39.1 µM (inactive) | 54.3 µM (inactive) | – | 33.5 µM (inactive) | – | – | 36.6 µM (inactive) | 39.4 µM (inactive) | 52.5 µM (inactive)

Source: ChEMBL document CHEMBL1201862, “PubChem BioAssay data set” (2004)
